Values of other authors in patent US11324771B2 (priority 2020, dated 2022).
Like-named read-outs stand apart in the source and are kept apart here.

Tests used:
[1] = not given; remark: listed apart in the source

In the case of “cobinamide dihydroxide dihydrogen phosphate (ester), mono (inner salt), 3′-ester with 5,6-dimethyl-1-α-D-ribofuranosyl-1H-benzimidazole [Hydroxocobalamin]”, the solubility in acetone (acetone) is listed as “practically insoluble”, the solubility in benzene (benzene) is listed as “practically insoluble” and the solubility in chloroform (chloroform) is listed as “practically insoluble”. The “solubility in dimethyl sulfoxide” value (dimethyl sulfoxide) was “freely soluble”, the “solubility in diethyl ether / ether” value (ether) was “practically insoluble” and the “solubility in ethyl acetate” value (ethyl acetate) was “practically insoluble”. The solubility in methanol (methanol) was “freely soluble”, the solubility in water (water) was “freely soluble” and the “solubility in aqueous buffer” value ([1]; pH 1.2) was “highly soluble”. The “solubility in aqueous buffer” value ([1]; pH 4.5) was “highly soluble”, the “solubility in aqueous buffer” value ([1]; pH 6.8) was under 400 µg/mL and the “solubility in aqueous buffer” value ([1]; pH 7.5) was under 400 µg/mL.
